Measured values from patent publication US10577618B2, “Class of glyphosate resistance genes” (Dow AgroSciences LLC, priority 2012, dated 2020).

Assays:
T0 corn plants = experiment: Post-emergence glyphosate tolerance of T0 dgt-28 corn (Table 19); assay type: in vivo, Zea mays
Protocol: Zea mays dgt-28 transformation events (T0) were allowed to acclimate in the greenhouse and were grown until plants had transitioned from tissue culture to greenhouse growing conditions (i.e., 2-4 new, normal looking leaves had emerged from the whorl). Plants were grown at 27° C. under 16 hour light:8 hour dark conditions in the greenhouse. The plants were then treated with commercial formulations of DURANGO DMA™ (containing the herbicide glyphosate) with the addition of 2% w/v ammonium-sulfate. Herbicide applications were made with a track sprayer at a spray volume of 187 L/ha, 50-cm spray height. T0 plants were sprayed with a range of glyphosate from 280-4480 g ae/ha glyphosate, which is capable of significant injury to untransformed corn lines. A lethal dose is defined as the rate that causes >95% injury to the B104 inbred.
T0 events of dgt-28 linked with TraP4, TraP5, TraP8 and TraP23 were generated by Agrobacterium transformation and were allowed to acclimate under controlled growth chamber conditions until 2-4 new, normal looking leaves had emerged from the whorl. Plants were assigned individual identification numbers and sampled for copy number analyses of both dgt-28 and aad-1. Based on copy number analyses, plants were selected for protein expression analyses. […]

T1 wheat = experiment: Detailed phenotypic screen of T1 wheat events at different glyphosate dose rates (Tables 41, 42); assay type: in vivo, Triticum aestivum; conditions: untransformed donor wheat plants
Protocol: Four replicates of 12 T1 seeds per selected event and eight replicates (12 seeds each) of the untransformed donor wheat line Bobwhite MPB26RH were sown in 85 mm pots and grown to the 2-leaf stage under well-watered conditions at 25° C. with supplementary lighting providing a 12 hour photoperiod. The pots were placed in a randomised design to allow environmental effects to be removed during data analysis. At the 2-leaf stage, plant length and number of leaves was recorded for each plant before spraying with glyphosate. The first, second, third and fourth replicate of T1 plants for each selected event and the untransformed donor wheat line were sprayed at a dose rate of 420, 840, 1680 and 3360 g ai/ha, respectively. The fifth, sixth, seventh and eighth replicate of untransformed donor wheat line (total 48 plants) were not sprayed. At 7, 14 and 21 days after spraying, the plants were scored for plant length, number of leaves and phenotypic response to glyphosate using the scoring scale in Table 37. Any morphological abnormalities were also recorded. For scoring, the scorer was “blinded” with regard to plant genotype and spray dose rate to prevent scoring bias. Plants with delayed germination and poor establishment (criteria: plant length <6 cm) at the pre-spray scoring were excluded from subsequent analyses.
This differentiation was maximal at 21 days and was observed across all glyphosate dose rates. Table 41. To assess the tolerance of the transgenic events to glyphosate at each spray dose rate, null T1 plants (i.e. plants not carrying the transgene) were excluded from subsequent analyses. T1 plants with a response score of less than three at 21 days after spraying were considered to have the null genotype. […]

[1] = Replicate 1, 420 g ai/ha, 10 plants at pre-spray scoring
[2] = Replicate 2, 840 g ai/ha, 10 plants at pre-spray scoring
[3] = Replicate 3, 1680 g ai/ha, 11 plants at pre-spray scoring
[4] = Replicate 4, 3360 g ai/ha, 10 plants at pre-spray scoring

## O=C(O)CNCP(=O)(O)O [glyphosate, N-(phosphonomethyl) glycine]
T0 corn plants
  non-transformed plants controlled with glyphosate at concentrations as low as: ≥ 280 g ae/ha
T1 wheat; [1]
  No. surviving plants at 14 days after spraying: 0
  No. surviving plants at 21 days after spraying: 0
T1 wheat; [2]
  No. surviving plants at 14 days after spraying: 3
  No. surviving plants at 21 days after spraying: 0
T1 wheat; [3]
  No. surviving plants at 14 days after spraying: 0
  No. surviving plants at 21 days after spraying: 0
T1 wheat; [4]
  No. surviving plants at 14 days after spraying: 1
  No. surviving plants at 21 days after spraying: 0
